The results in this text go back to patent US9198431B2, “Use of N6-(2-hydroxyethyl)-adenosine in preparation of crop pesticide” (Zhejiang Subtropical Crops Research Institute, priority 2013, dated 2015).

As a reminder, the inhibition is the relative decrease from the control value, in per cent.

Holding throughout (type): in vivo
The subject of test [1] is diamondback moth larvae. The test can be described thus: Stomach poisoning (oral toxicity) of diamondback moth larvae. The settings on record: for Average Corrected Death Rate (%), stomach poisoning: 96 h. The procedure:
Test Insects: Artificial subculture breeding of diamondback moths collected at Xinqiao greenhouse vegetable field in Wenzhou was carried out in a thermostat illumination incubator and the second-instar larvae breeds of a consistent size and color were picked for tests.
(§1) Test Method: • Preparing N6-(2-hydroxyethyl)-adenosine solutions of various concentrations; • Diluting the 20% N6-(2-hydroxyethyl)-adenosine suspension to make solutions with 1000 mg/L, 800 mg/L, 600 mg/L, 400 mg/L, and 200 mg/L active ingredient concentrations, respectively, for testing the roles of N6-(2-hydroxyethyl)-adenosine in stomach poisoning of diamondback moth larvae. • Diluting the 20% N6-(2-hydroxyethyl)-adenosine suspending agent to make solutions with 300 mg/L, 250 mg/L, 200 mg/L, 150 mg/L and 100 mg/L active ingredient concentrations, respectively, to test the roles of N6-(2-hydroxyethyl)-adenosine in suppressing feeding and retarding development of diamondback moth larvae.
Cut healthy, fresh cabbage leaves in small pieces that are 7 cm in diameters. Smear these pieces with various spore suspensions and leave them to dry naturally. Repeat the smearing process 3 times, and then put the leaves in plastic Petri-dishes with tiny holes that are 2 cm in diameter. Cover the dishes with nylon membranes to keep the leaves fresh.
Pick out healthy indoor bred third-instar diamondback moth larvae of similar sizes with a writing brush, and inoculate them onto the cabbage leaves. Make 4 replicas of the treatments, each of which should contain 20 tested larvae. Cultivate the dishes in an incubator set to 25±1° C., 75˜80% relative humidity and 16 L:8D illumination. Observe and record the number of larvae that die of infection every day. Use 0.1% triton solution as a blank control and use the Abbott formula for correction of death rates. Corrected Death Rate (%)=[(Death Rate of the Treatment Group−Death Rate of the Control Group)/(1−Death Rate of the Control Group)]×100.
(§2) The results obtained were analyzed for significances of difference using Ducan's New Multiple Range Method. The various lowercase letters following the data in the same column indicate significant differences at a level of 0.05 level (P<0.05). The various capital letters following the data in the same column indicate significant differences at a level of 0.01 (P<0.01).

Test [2] deals with diamondback moth larvae. The test can be described thus: Selective antifeeding (feeding suppression), leaf disk dipping. The note with it: for Selective antifeeding rate: third-instar larvae. The protocol: as §1
(§3) Round leaf disk dipping method was employed in this test. Prepare leaf disks out of cabbage leaves with a round hole puncher (d=2 cm), and soak the disks in N6-(2-hydroxyethyl)-adenosine solutions with different concentrations for 30 seconds. Then, take the leaf disks out and drain the excessive solution with clean blotting paper to prepare them for treatments. Use 0.1% triton solution as a blank control.
Put a good-size piece of filter paper in a Petri-dish, and then put two processed and two control leaf disks into the same Petri-dish, which are arrayed in a cross fashion. Inoculate three third-instar diamondback moth larvae that have been subjected to 4-hour starvation treatments onto the leaf disks and seal the dish. Prepare 10 replicas for each treatment group. After 48 hours, pick five replicas with 0% death rate to measure the leaf areas that have been consumed by the larvae with a grid paper and calculate the average leaf consumption areas. Antifeeding Rate (%)=[(Leaf Consumption Area in the Control Group−Leaf Consumption Area in the Treatment Group)÷(Leaf Consumption Area in the Control Group+Leaf Consumption Area in the Treatment Group)]×100.

Test [3] has as its system diamondback moth larvae. Nature of the test: Development retardation (weight gain inhibition) of diamondback moth larvae. The note with it: for Average Weight (10 Tested Larvae) (mg) Δ4d: weight gain. The procedure:
as §1
Soak the cabbage leaves (7 cm in diameters) in the prepared solutions for 30 seconds, take the leaves out, leave them to dry, and then transfer the dried leaves to a Petri-dish (9 cm in diameter) cushioned with a wet filter paper. Inoculate 15 weighed third-instar diamondback moth larvae onto each Petri-dish. […] Prepare four replicas for each treatment group to determine the effects of various solutions in inhibiting the weight gain of the larvae.
Weight-Gain Inhibition Rate (%)=[(the Average Weight Gain of the Control Group−the Average Weight Gain of the Treatment Group)÷the Average Weight Gain of the Control Group]×100.
as §2

Test [4] relates to diamondback moth larvae. The test can be described thus: Non-selective antifeeding, leaf disk dipping. The note with it: third-instar larvae. The protocol: as §1, §3
Put a good-sized piece of filter paper in a Petri-dish, and then put two processed leaf disks in the same Petri-dish and another two control leaf disks in a different dish. Inoculate three third-instar diamondback moth larvae that have been subjected to 4-hour starvation treatments onto the leaf disks and seal the dish. Prepare 10 replicas for each treatment group. After 48 hours, pick five replicas with 0% death rate to measure the leaf areas that have been consumed by the larvae with a grid paper and calculate the average leaf consumption areas. Non-Selective Antifeeding Rate (%)=[(Leaf Consumption Area in the Control Group—Leaf Consumption Area in the Treatment Group)÷Leaf Consumption Area in the Control Group]×100.

The subject of test [5] is aphids. Nature of the test: Insecticidal activity on aphids. The settings on record: experimental data omitted.

With `OCCNc1ncnc2c1ncn2[C@@H]1O[C@H](CO)[C@@H](O)[C@H]1O` [N6-(2-hydroxyethyl)-adenosine], the “Average Corrected Death Rate (%), stomach poisoning” value in test [1] (800 mg/L) was 84.21%; in test [1] (1000 mg/L) it was 86.84%. The “Post-treatment death rates of the larvae” value in test [1] (25-hour post-treatment, 1000 to 200 mg/L) is given as “below 30%”. In test [1] (in vivo), the “Lethal effect on diamondback moth” value is “strong lethal effect”. Besides, the Selective antifeeding rate in test [2] (200 mg/L, 48 hour) was 71.30%; in test [2] (250 mg/L, 48 hours), 83.47%; in test [2] (300 mg/L, 48 hours) it was 83.82%. Besides, the “Feeding capacity of the tested larvae (FIGS. 2 and 3)” value in test [2] (300, 250, 200, 150 and 100 mg/L) is on record as “clear declines in their feeding capacity”. Besides, the “Average Weight (10 Tested Larvae) (mg) Δ4d” value in test [3] (100 mg/L) is 4.13 mg; in test [3] (150 mg/L) it was 2.40 mg; in test [3] (200 mg/L) it was 1.33 mg; in test [3] (250 mg/L) it was 0.65 mg; in test [3] (300 mg/L), 0.48 mg. Moreover, the inhibition at 100 µg/mL in test [3] (Plutella xylostella, 72 h, 100 mg/L, 3 days after treatment, third-instar larvae, read-out: Weight Gain Inhibition Rate (%)) came to 18.3%. Also, the inhibition at 150 µg/mL in test [3] (Plutella xylostella, 72 h, 150 mg/L, 3 days after treatment, third-instar larvae, read-out: Weight Gain Inhibition Rate (%)) came out at 52.5%. In addition, the inhibition at 200 µg/mL in test [3] (Plutella xylostella, 72 h, 200 mg/L, 3 days after treatment, third-instar larvae, read-out: Weight Gain Inhibition Rate (%)) was found to be 73.8%. Besides, the inhibition at 250 µg/mL in test [3] (Plutella xylostella, 72 h, 250 mg/L, 3 days after treatment, third-instar larvae, read-out: Weight Gain Inhibition Rate (%)) came to 87.1%. In test [3] (Plutella xylostella, 72 h, 300 mg/L, 3 days after treatment, third-instar larvae, read-out: Weight Gain Inhibition Rate (%)), the inhibition at 300 µg/mL was found to be 90.6%. The Non-selective antifeeding rate was found to be 65.75% in test [4] (200 mg/L, 48 hour); 75.73% in test [4] (250 mg/L, 48 hours); 77.64% in test [4] (300 mg/L, 48 hours). Moreover, in test [5], the “Insecticidal activity on aphids” value is reported as “able to kill aphids”.
